28 compounds from patent publication US10968232B2 (Merck Sharp & Dohme Corp., priority 2016, dated 2021) can be followed below.

SMILES strings stand for the structures.

The test has as its target T1, human GPR40 (Homo sapiens, UniProt O14842).
T1 construct: expressed in transfected cells
Put plainly: Inositol Phosphate Turnover (IP1) Assay. It counts as cell-based. Particulars: HEK cells stably expressing human GPR40; CisBio IP-One kit; 60 minutes at 37 degrees; read-out: Human IP1 EC50. Here is the method:
Human GPR40 stable cell-lines were generated in HEK cells. The expression plasmids were transfected using lipofectamine (Life Technologies) following manufacturer's instructions. Stable cell-lines were generated following drug selection and single cell cloning. The assay was performed in 384-well format. HEK cells stably expressing human GPR40 were plated at 7500 cells per well in growth medium (DMEM/10% fetal calf serum). Cell plates were then incubated 16 hours at 37 degrees in a 5% CO2 incubator. Measurement of Inositol Phosphate Turnover (IP1) was performed using the CisBio IP-One kit (Part number 62IPAPEB). After the 16 hour incubation, the growth media was removed by centrifugation using the BlueWasher (AusWasher GUI Ver. v1.0.1.8) Protocol #21-“Light Dry” and 10 ul of stimulation buffer (prepared as described in the kit) was added to each well. In a separate plate, compounds were diluted in DMSO (200-fold over the final concentration in the assay well) and 50 nl was acoustically transferred to the appropriate well in the assay cell plate. The plates were then incubated for 60 minutes at 37 degrees in a 5% CO2 incubator. 10 ul of detection buffer (also prepared as described in the IP-One kit) was added to each well and the plates were incubated at room temperature for 60 minutes in the dark. The plates were then read in a Perkin Elmer EnVision or equivalent reader able to measure FRET. […] Data was normalized to % activity using a reference compound and EC50s determined using a standard 4-parameter fit.

T1 sequence (O14842 whole entry): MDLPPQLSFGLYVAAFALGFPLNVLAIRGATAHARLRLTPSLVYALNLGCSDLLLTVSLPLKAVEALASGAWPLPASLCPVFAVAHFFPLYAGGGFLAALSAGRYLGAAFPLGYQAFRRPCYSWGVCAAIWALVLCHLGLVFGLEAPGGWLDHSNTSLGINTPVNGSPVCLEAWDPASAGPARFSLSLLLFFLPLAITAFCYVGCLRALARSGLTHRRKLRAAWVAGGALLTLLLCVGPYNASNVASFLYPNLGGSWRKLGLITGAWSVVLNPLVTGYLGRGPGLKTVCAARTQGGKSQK

The term EC50 denotes the concentration at which the effect is half-maximal. Consider `C[C@H](C(=O)O)[C@H](c1ccc2c(c1)OC1(CCCN([C@H](C)c3cc(C(F)(F)F)ccc3C(F)(F)F)CC1)CC2)C1CC1` (single isomer, unassigned) [Example 49, (2S,3R)-3-((R or S)-1-((R)-1-(2,5-bis (trifluoromethyl)phenyl)ethyl)spiro[azepane-4,2′-chroman]-7′-yl)-3-cyclopropyl-2-methylpropanoic acid], for which the concentration giving a half-maximal response (EC50) is 0.527 nM.
For the compound `C[C@H](C(=O)O)[C@H](c1ccc2c(c1)OC1(CCCN([C@H](C)c3cc(C(F)(F)F)ccc3C(F)(F)F)CC1)CC2)C1CC1` (single isomer, unassigned) [Example 50, (2S,3R)-3-((S or R)-1-((R)-1-(2,5-bis (trifluoromethyl)phenyl)ethyl)spiro[azepane-4,2′-chroman]-7′-yl)-3-cyclopropyl-2-methylpropanoic acid], the EC50 came out at 1.39 nM.
With `C[C@H](C(=O)O)[C@H](c1ccc2c(c1)OC1(CCCN([C@@H](C)c3cc(C(F)(F)F)ccc3C(F)(F)F)CC1)CC2)C1CC1` (single isomer, unassigned) [Example 51, (2S,3R)-3-((R or S)-1-((S)-1-(2,5-bis (trifluoromethyl)phenyl)ethyl)spiro[azepane-4,2′-chroman]-7′-yl)-3-cyclopropyl-2-methylpropanoic acid] the figure was 14.1 nM.
With `C[C@H](C(=O)O)[C@H](c1ccc2c(c1)OC1(CCCN([C@@H](C)c3cc(C(F)(F)F)ccc3C(F)(F)F)CC1)CC2)C1CC1` (single isomer, unassigned) [Example 52, (2S,3R)-3-((S or R)-1-((S)-1-(2,5-bis (trifluoromethyl)phenyl)ethyl)spiro[azepane-4,2′-chroman]-7′-yl)-3-cyclopropyl-2-methylpropanoic acid], the concentration giving a half-maximal response (EC50) was 2.66 nM.
With `CC(c1cc(C2CC2)ccc1C(F)(F)F)N1CCC2(CCc3ccc([C@H](C4CC4)[C@H](C)C(=O)O)cc3O2)CC1` (single isomer, unassigned) [Example 57, (2S,3R)-3-cyclopropyl-3-(1′-((R or S)-1-(5-cyclopropyl-2-(trifluoromethyl)phenyl)-ethyl)-spiro[chroman-2,4′-piperidin]-7-yl)-2-methylpropanoic Acid] the figure was 1.4 nM; with `CC(c1cc(C2CC2)ccc1C(F)(F)F)N1CCC2(CCc3ccc([C@H](C4CC4)[C@H](C)C(=O)O)cc3O2)CC1` (single isomer, unassigned) [Example 58, (2S,3R)-3-cyclopropyl-3-(1′-((S or R)-1-(5-cyclo-propyl-2-(trifluoromethyl)-phenyl)ethyl)-spiro [chroman-2,4′-piperidin]-7-yl)-2-methylpropanoic acid], 4.43 nM.
Consider `CC(c1cc(Cl)ccc1OCC(F)(F)F)N1CCC2(CCc3ccc([C@H](C4CC4)[C@H](C)C(=O)O)cc3O2)CC1` (single isomer, unassigned) [Example 62, (2S,3R)-3-(1′-((R or S)-1-(5-chloro-2-(2,2,2-trifluoroethoxy)phenyl)ethyl)spiro [chroman-2,4′-piperidin]-7-yl)-3-cyclopropyl-2-methylpropanoic Acid], for which the concentration for a half-maximal effect (EC50) was found to be 386 nM.
With `C[C@H](C(=O)O)[C@H](c1ccc2c(c1)OC1(CC2)CCC(N(C)c2ncccc2C(F)(F)F)CC1)C1CC1` (single isomer, unassigned) [Example 63] the figure was 2.98 nM; with `C[C@H](C(=O)O)[C@H](c1ccc2c(c1)OC1(CC2)CCC(Nc2cc(C(F)(F)F)ccc2C(F)(F)F)CC1)C1CC1` (single isomer, unassigned) [Example 64], 27.9 nM; with `C[C@H](C(=O)O)[C@H](c1ccc2c(c1)OC1(CC2)CCC(Nc2ncccc2C(F)(F)F)CC1)C1CC1` (single isomer, unassigned) [Example 65], 28 nM.
With `C[C@H](C(=O)O)[C@H](c1ccc2c(c1)OC1(CC2)CCC(Nc2cc(C(F)(F)F)ccc2C(F)(F)F)CC1)C1CC1` (single isomer, unassigned) [Example 67] the figure was 1.12 nM.
As to `C[C@H](C(=O)O)[C@H](c1ccc2c(c1)OC1(CC2)CCC(Nc2ncccc2C(F)(F)F)CC1)C1CC1` (single isomer, unassigned) [Example 68], the EC50 is 0.41 nM.
As for `C[C@H](C(=O)O)[C@H](c1ccc2c(c1)OC1(CC2)CCC(N(C)c2ncccc2C(F)(F)F)CC1)C1CC1` (single isomer, unassigned) [Example 69], the figure is 0.416 nM.
Regarding `C[C@H](C(=O)O)[C@H](c1ccc2c(c1)OC1(CCCN([C@H](C)c3cc(C(F)(F)F)ccc3C(F)(F)F)C1)CC2)C1CC1` (single isomer, unassigned) [Example 73, (2S,3R)-3-((R or S)-1′-((R)-1-(2,5-bis(trifluoromethyl)phenyl)ethyl)spiro-[chroman-2,3′-piperidin]-7-yl)-3-cyclopropyl-2-methylpropanoic Acid], the half-maximal effective concentration (EC50) turned out to be 186 nM.
With `C[C@H](C(=O)O)[C@H](c1ccc2c(c1)OC1(CCCN([C@H](C)c3cc(C(F)(F)F)ccc3C(F)(F)F)C1)CC2)C1CC1` (single isomer, unassigned) [Example 74, (2S,3R)-3-((S or R)-1′-((R)-1-(2,5-bis (trifluoromethyl)phenyl)-ethyl)spiro[chroman-2,3′-piperidin]-7-yl)-3-cyclopropyl-2-methylpropanoic acid] the figure was 18.3 nM.
On to `C[C@H](C(=O)O)[C@H](c1ccc2c(c1)OC1(CCCN([C@@H](C)c3cc(C(F)(F)F)ccc3C(F)(F)F)C1)CC2)C1CC1` (single isomer, unassigned) [Example 75, (2S,3R)-3-((S or R)-1′-((S)-1-(2,5-bis (trifluoromethyl)phenyl)-ethyl)spiro[chroman-2,3′-piperidin]-7-yl)-3-cyclopropyl-2-methylpropanoic acid], for which the 50% effective concentration (EC50) came out at 0.374 nM.
With `CC(c1cc(Cl)ccc1F)N1CCC2(CCc3ccc([C@H](C4CC4)[C@H](C)C(=O)O)cc3O2)CC1` (single isomer, unassigned) [Example 78, (2S,3R)-3-(1′-((R or S)-1-(5-chloro-2-fluorophenyl)ethyl)spiro[chroman-2,4′-piperidin]-7-yl)-3-cyclopropyl-2-methylpropanoic Acid], the EC50 turned out to be 14.3 nM.
With `CC(c1cc(Cl)cc(Cl)c1OC(F)F)N1CCC2(CCc3ccc([C@H](C4CC4)[C@H](C)C(=O)O)cc3O2)CC1` (single isomer, unassigned) [Example 79, (2S,3R)-3-cyclopropyl-3-(1′-((R or S)-1-(3,5-dichloro-2-(difluoromethoxy)phenyl)-ethyl)spiro[chroman-2,4′-piperidin]-7-yl)-2-methylpropanoic Acid] the figure was 2.44 nM; with `CC(c1cc(Cl)cc(Cl)c1OC(F)F)N1CCC2(CCc3ccc([C@H](C4CC4)[C@H](C)C(=O)O)cc3O2)CC1` (single isomer, unassigned) [Example 80, (2S,3R)-3-cycloprop-3-(1′-((S or R)-1-(3,5-dichloro-2-(difluoro-methoxy)phenyl)-ethyl)spiro[chroman-2,4′-piperidin]-7-yl)-2-methylpropanoic acid], 3.22 nM.
With `C[C@H](C(=O)O)[C@H](c1ccc2c(c1)OC1(CC2)[C@@H]2CC[C@H]1CN([C@H](C)c1cc(C(F)(F)F)ccc1C(F)(F)F)C2)C1CC1` (single isomer, unassigned) [Example 81] the figure was 102 nM.
For `C[C@H](C(=O)O)[C@H](c1ccc2c(c1)OC1(CC2)[C@@H]2CC[C@H]1CN([C@@H](C)c1cc(F)ccc1C(F)(F)F)C2)C1CC1` (single isomer, unassigned) [Example 82], the EC50 turned out to be 249 nM.
With `C[C@H](C(=O)O)[C@H](c1ccc2c(c1)OC1(CC2)[C@@H]2CC[C@H]1CN([C@H](C)c1cc(C(F)(F)F)ccc1C(F)(F)F)C2)C1CC1` (single isomer, unassigned) [Example 83] the figure was 798 nM; with `C[C@H](C(=O)O)[C@H](c1ccc2c(c1)OC1(CC2)[C@@H]2CC[C@H]1CN([C@@H](C)c1cc(F)ccc1C(F)(F)F)C2)C1CC1` (single isomer, unassigned) [Example 85], 36.2 nM; with `C[C@H](C(=O)O)[C@H](c1ccc2c(c1)OC1(CC2)CC(Nc2ncccc2C(F)(F)F)C1)C1CC1` (single isomer, unassigned) [Example 87], 15.3 nM.
With `C[C@H](C(=O)O)[C@H](c1ccc2c(c1)OC1(CC2)CC(Nc2ncccc2C(F)(F)F)C1)C1CC1` (single isomer, unassigned) [Example 88] the figure was 57 nM; with `C[C@H](NC1CC2(CCc3ccc([C@H](C4CC4)[C@H](C)C(=O)O)cc3O2)C1)c1cc(C(F)(F)F)ccc1C(F)(F)F` (single isomer, unassigned) [Example 92], 24.6 nM; with `C[C@H](NC1CC2(CCc3ccc([C@H](C4CC4)[C@H](C)C(=O)O)cc3O2)C1)c1cc(C(F)(F)F)ccc1C(F)(F)F` (single isomer, unassigned) [Example 94], 2.62 nM.
As for `C[C@H](C(=O)O)[C@H](c1ccc2c(c1)OC1(CC2)CC(NCc2cc(C(F)(F)F)ccc2C(F)(F)F)C1)C1CC1` (single isomer, unassigned) [Example 95], the figure is 48.6 nM.
